Entries after “also recorded” stand apart in the source; their conditions may differ.
How the values were obtained:
[1] = tested on: CXCL10 expression; type: cell-based, human
[2] = tested on: rSARS-COV-2mNG; type: cell-based, SARS-COV-2
[3] = cited from earlier work

With `COc1cc(OC)c2c(=O)cc(-c3cc(C)c(OCCCN4CCN(C)CC4)c(C)c3)oc2c1` [ZL0969] the CXCL10 expression [1] was “reduces expression levels of CXCL10; also recorded: reduce CXCL10 expression” and the “virus titer (FFA)” value [2] was “significantly reduce virus titer”.

For `CCC(=O)O[C@]1(C(=O)SCF)[C@H](C)C[C@H]2[C@@H]3C[C@H](F)C4=CC(=O)C=C[C@]4(C)[C@@]3(F)[C@@H](O)C[C@@]21C` [Fluticasone propionate], the “solubility in 95% ethanol” value ([3]; 95% ethanol) is listed as “slightly soluble”, the “solubility in dimethyl sulfoxide” value ([3]; dimethyl sulfoxide) is listed as “freely soluble” and the solubility in dimethylformamide ([3]; dimethylformamide) is listed as “freely soluble”. For the same compound, the solubility in methanol ([3]; methanol) was “slightly soluble” and the solubility in water ([3]; water) was “practically insoluble”.

Reference: patent US20240325383A1, “Small Molecule Targeting of BRD4 for Treatment of COVID-19” (Board of Regents, The University of Texas System, priority 2023, published 2024)
